Measurements reported in PubChem BioAssay (NCI).
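Test compounds were applied to cells in 96-well plates for 48 hours at 5 doses. The concentration for 50% growth inhibition is given as GI50. At the TGI there is no net growth.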

Key:
Assay in all cases: DTP human tumour cell line panel, 48 h
[1] = test system: SR leukemia
[2] = test system: M14 melanoma
[3] = test system: U251 CNS
[4] = test system: NCI-H522 lung
[5] = test system: MCF7 breast
[6] = test system: HCC-2998 colon
[7] = test system: IGROV1 ovarian
[8] = test system: MOLT-4 leukemia
[9] = test system: SK-MEL-2 melanoma
[10] = test system: SNB-19 CNS

SMILES | TGI [1] [µM] | TGI [2] [µM] | TGI [3] [µM] | TGI [4] [µM] | TGI [5] [µM] | TGI [6] [µM] | TGI [7] [µM] | TGI [8] [µM] | TGI [9] [µM] | TGI [10] [µM] | GI50 [1] [µM] | GI50 [5] [µM] | GI50 [6] [µM] | GI50 [7] [µM] | GI50 [8] [µM] | GI50 [9] [µM] | GI50 [10] [µM]
CN(Cc1c2ccccc2cc2ccccc12)S(=O)(=O)c1ccc(-c2c3nc(c(-c4ccc(S(=O)(=O)N(C)Cc5c6ccccc6cc6ccccc56)cc4)c4ccc([nH]4)c(-c4ccc(S(=O)(=O)N(C)Cc5c6ccccc6cc6ccccc56)cc4)c4nc(c(-c5ccc(S(=O)(=O)N(C)Cc6c7ccccc7cc7ccccc67)cc5)c5ccc2[nH]5)C=C4)C=C3)cc1 | > 100 | > 100 | > 100 | > 100 | > 100 | > 100 | > 100 | > 100 | > 100 | > 100 | – | – | – | – | – | – | –
CCN1CCN(C(=O)[C@]23CC[C@@H](C)[C@H](C)[C@@H]2C2=CC[C@@H]4[C@@]5(C)C/C(=C/c6cccnc6)C(=O)C(C)(C)[C@@H]5CC[C@@]4(C)[C@]2(C)CC3)CC1 | 7.09 | – | – | – | 3.42 | 3 | 3.87 | 7.38 | 4.76 | 3.74 | 2.38 | 1.64 | 1.55 | 1.89 | 2.45 | 2.12 | 1.79
CCSc1ncnc2c(C3OC(CO)C(O)C3O)nsc12 (configuration not stated) | > 100 | > 100 | > 100 | – | > 100 | > 100 | > 100 | > 100 | > 100 | – | – | – | – | – | – | – | –
C[C@]12CC[C@H]3[C@@H](CCC4=CC(=O)C=C[C@@]43O)[C@@H]1CCC2=O | > 100 | > 100 | > 100 | – | > 100 | > 100 | > 100 | > 100 | > 100 | > 100 | – | – | – | – | – | – | –
COc1cc(/C=C2\C[C@H]3[C@@H]4CC=C5C[C@@H](N6CCCC6)CC[C@]5(C)[C@H]4CC[C@]3(C)[C@H]2O)cc(OC)c1OC | > 100 | 4.74 | 28.8 | 26.7 | 22 | 20.7 | 30 | > 56.2 | 35.9 | 35.8 | – | – | – | – | – | – | –
COCn1c(C)c(C)c2c(=O)oc(=O)[nH]c21 | > 100 | > 100 | > 100 | > 100 | > 100 | > 100 | > 100 | > 100 | > 100 | > 100 | – | – | – | – | – | – | –
C=CCNC1=C2C[C@@H](C)C[C@@H](OC)C(OC(=O)CCCN(C)C)[C@H](C)/C=C(\C)[C@@H](OC(N)=O)[C@H](OC)/C=C\C=C(/C)C(=O)NC(=CC1=O)C2=O (some centres not stated) | 8.97 | 20.7 | 26.6 | 20.5 | 12.1 | 17.6 | 21.7 | 39.1 | 25.5 | 28.9 | – | – | – | – | – | – | –
Cc1c(-c2ccccc2)c(C#N)c2nnn(-c3ccccc3)c(=O)n12 | > 100 | > 100 | > 100 | > 100 | > 100 | > 100 | > 100 | – | > 100 | > 100 | – | – | – | – | – | – | –
O=C1COC(c2ccccc2O)=NN1CCCN1CCCC1 | > 100 | > 100 | > 100 | > 100 | > 100 | – | > 100 | > 100 | > 100 | > 100 | – | – | – | – | – | – | –
CN(C(=O)C12C3C4(C(=O)O)C1(C(=O)N(C)C(C)(C)C)C1C2(C(=O)O)C3(C(=O)N(C)C(C)(C)C)C14C(=O)N(C)C(C)(C)C)C(C)(C)C (configuration not stated) | > 100 | > 100 | > 100 | > 100 | > 100 | > 100 | > 100 | > 100 | > 100 | > 100 | – | – | – | – | – | – | –
CCNC(=S)N/N=C/c1cc(OC)ccc1O | > 100 | > 100 | > 100 | > 100 | > 100 | > 100 | > 100 | > 100 | > 100 | > 100 | – | – | – | – | – | – | –
CCSSCS(C)(=O)=O | > 100 | 55.3 | > 100 | 40 | 68.5 | 34.7 | – | > 100 | > 100 | > 100 | – | – | – | – | – | – | –
CC1CN=C(Nc2cccc(C(F)(F)F)c2)S1 (configuration not stated) | > 100 | > 100 | > 100 | > 100 | > 100 | > 100 | – | > 100 | > 100 | > 100 | – | – | – | – | – | – | –
Cc1cc(NS(=O)(=O)c2ccc(NC(=O)c3ccc4nc5ccccc5c(Nc5ccc(S(=O)(=O)N=C(N)N)cc5)c4c3)cc2)no1 | 46.7 | 34.6 | 30 | 34.8 | 36.4 | 30.8 | 38.6 | 40.8 | 33.4 | 94.3 | – | – | – | – | – | – | –
COc1cc(C2c3cc4c(cc3C(O)C3CCC(=O)N23)OCO4)cc(OC)c1OC (configuration not stated) | > 100 | > 100 | 82.8 | 89.9 | 81 | > 100 | > 100 | > 100 | > 100 | > 100 | – | – | – | – | – | – | –
Cc1ccccc1N=C(N)NC#N | > 100 | > 100 | > 100 | – | > 100 | > 100 | > 100 | > 100 | > 100 | > 100 | – | – | – | – | – | – | –
CC1(C)CCC[C@]2(C)[C@@H]1CC[C@@]13O[C@@H]1C1=C(CO)C(=O)O[C@]14O[C@@H]4[C@@H]23 | > 100 | 23.6 | 29.2 | 22 | > 63.9 | 40.5 | 27.3 | > 100 | 31.6 | 27.9 | – | – | – | – | – | – | –
CC(=O)Nc1ccc(S(=O)(=O)Nc2nnc(S(N)(=O)=O)s2)cc1 | > 100 | > 100 | > 100 | > 100 | > 100 | > 100 | – | > 100 | – | > 100 | – | – | – | – | – | – | –
CC(=O)N1N=C(c2c(O)ccc3ccccc23)CC1C(=O)c1ccco1 (configuration not stated) | 45.3 | > 100 | > 100 | > 100 | 47.7 | > 100 | > 100 | 60.1 | 43.1 | – | – | – | – | – | – | – | –
Cc1cccc2c1C(=O)C1(Cc3ccccc3C1=O)C2 (configuration not stated) | > 100 | > 100 | > 100 | > 100 | > 100 | > 100 | > 100 | > 100 | – | > 100 | – | – | – | – | – | – | –
